Legend:
[1] = tested on: oligodendrocyte precursor cells; test: BrdU uptake by oligodendrocyte precursor cells with culture supernatant of cardiomyocytes and FGFR inhibitors (Example 1); type: cell-based, C57BL/6j mice; conditions: SU5402 at 10, 30, 100 μM or PD173074 at 0.03, 0.1, 0.3, 1 μM added with supernatant; FIG. 1
Method: Hearts extracted from C57BL/6j mice (postnatal day 1-old) were minced, and then poured into 1 mg/ml of Type 1 collagenase (Worthington) and shaken at 37° C. for 20 minutes. The obtained cell suspension was pipetted and allowed to stand, and then the supernatant was collected. Remaining cardiomyocytes after the collection of the supernatant were again poured into 1 mg/ml of Type 1 collagenase (Worthington) and shaken at 37° C. for 20 minutes, and then the supernatant was collected. This operation was repeated three times. The collected supernatant was suspended in MEM ([…]) containing 5% calf serum, and the cell suspension was poured into a culture dish. After 30 minutes, suspension cells were collected, and were resuspended in MEM containing 5% calf serum and then centrifuged (2000 rpm, 6 minutes). […]
The harvested oligodendrocyte precursor cells were seeded in a poly-L-lysine (Sigma)-coated plastic tissue culture dish, and cultured in a medium for 1 day (37° C., 5% CO2). […] Bromodeoxyuridine (BrdU) was subsequently added and cultured at 37° C. for 24 hours, and then the cells were collected; the BrdU uptake was then detected using the cell proliferation ELISA, BrdU colorimetric kit (Roche). As a control, the BrdU uptake was measured under the same conditions as those described above, except that the culture supernatant of cardiomyocytes was not added. […]

[2] = tested on: oligodendrocyte precursor cells; test: BrdU uptake by oligodendrocyte precursor cells with recombinant FGFs (Example 3); type: cell-based, C57BL/6j mice; conditions: FGF at 10, 30 or 100 ng/ml, vs saline control; FIG. 3
Method: Recombinant FGF15 (Abcam), FGF21 (R&D), or FGF23 (R&D) was diluted in saline solution immediately before use to prepare an each FGF-containing solution. Oligodendrocyte precursor cells were harvested from C57BL/6j mice (postnatal day 1-old) brains, as in Example 1.
Initially, the oligodendrocyte precursor cells were seeded in a poly-L-lysinde (Sigma)-coated plastic tissue culture dish, and cultured in the following medium for 1 day (37° C., 5% CO2). The medium used was DMEM containing 4 mM L-gludamine (Sigma), 1 mM sodium pyruvate (Sigma), 0.1% bovine serum albumin (Sigma), 50 μg/ml apo-Transferrin (Sigma), 5 μg/ml insulin (Sigma), 30 nM sodium selenite (Sigma), 10 nM biotin (Sigma), 10 nM hydrocortisone (Sigma), 10 ng/ml Platelet-Derived Growth Factor-AA (Peprotech), and 10 ng/ml basic fibroblast growth factor (Peprotech). Thereafter, each type of FGF-containing solution was added to the culture medium of oligodendrocyte precursor cells such that the concentration of each type of FGF was 10 ng/ml, 30 ng/ml, or 100 ng/ml, and the cells were cultured at 37° C. for 24 hours. BrdU was subsequently added and cultured at 37° C. for 24 hours, and then the cells were collected; the BrdU uptake was then detected using the cell proliferation ELISA, BrdU colorimetric kit (Roche). As a control, an equivalent amount of saline solution was used instead of the FGF21-containing solution, and the BrdU uptake was measured under the same conditions as those described above. This experiment studied three cases for each group.

## CCN(CC)CCCCNc1ncc2cc(-c3cc(OC)cc(OC)c3)c(NC(=O)NC(C)(C)C)nc2n1 [PD173074]
[1]
  increase in the BrdU uptake by culture supernatant of cardiomyocytes: suppressed

## Cc1c[nH]c(/C=C2\C(=O)Nc3ccccc32)c1CCC(=O)O [SU5402]
[1]
  increase in the BrdU uptake by culture supernatant of cardiomyocytes: suppressed

B1: FGF23: Recombinant FGF23 (R&D), comparison FGF subtype (protein, UniProt Q9GZV9 25-251, looked up)
Fibroblast growth factor 23: YPNASPLLGSSWGGLIHLYTATARNSYHLQIHKNGHVDGAPHQTIYSALMIRSEDAGFVVITGVMSRRYLCMDFRGNIFGSHYFDPENCRFQHQTLENGYDVYHSPQYHFLVSLGRAKRAFLPGMNPPPYSQFLSRRNEIPLIHFNTPIPRRHTRSAEDDSERDPLNVLKPRARMTPAPASCSQELPSAEDNSPMASDPLGVVRGGRVNTHAGGTGPEGCRPFAKFI
[2]
  BrdU uptake by the oligodendrocyte precursor cells: significant difference in the amounts of BrdU uptake was not observed

B2: FGF15: Recombinant FGF15 (Abcam), comparison FGF subtype (protein, UniProt O35622 26-218, looked up)
Fibroblast growth factor 15: RPLAQQSQSVSDEDPLFLYGWGKITRLQYLYSAGPYVSNCFLRIRSDGSVDCEEDQNERNLLEFRAVALKTIAIKDVSSVRYLCMSADGKIYGLIRYSEEDCTFREEMDCLGYNQYRSMKHHLHIIFIQAKPREQLQDQKPSNFIPVFHRSFFETGDQLRSKMFSLPLESDSMDPFRMVEDVDHLVKSPSFQK
[2]
  BrdU uptake by the oligodendrocyte precursor cells: significant difference in the amounts of BrdU uptake was not observed
